Patent US4914197A, “Novel phosphoric diesters” (Senju Pharmaceutical Co., Ltd., priority 1986, dated 1990)
“And” between values parts separate entries of the source, which are not always exact repeats. Identical values can stand only once.

Key:
rabbits eye = test: Topical antiinflammatory effect, anterior chamber paracentesis inflammation model of the rabbits eye; assay type: in vivo, female white rabbits; details: 0.1% ophthalmic solution; for % Inhibition: inhibition of increase in protein of secondary aqueous humor vs control; for Increase in protein: secondary minus primary aqueous humor (1.5 hours apart), 10 μl at 2, 1 and 0.5 hour before paracentesis, control 25.5
Description: The antiinflammatory effect of the compound according to the present invention was investigated in the anterior chamber paracentesis inflammation model of the rabbits eye.
Method: Using female white rabbits, a 0.1% ophthalmic solution of L-ascorbyl tocopheryl phosphate sodium and, as a control, physiological saline were instilled into the bilateral eyes of rabbits in volumes of 10 μl each at 2, 1 and 0.5 hour before peracentesis and using a 27-gauge needle about 200 μl of anterior chamber aqueous humor was collected from each eye (primary aqueous humor). Then, after an interval of 1.5 hours, the aqueous humor was collected again in the same manner (secondary aqueous humor). The protein content of each aqueous sample was determined by the method of Lowry and the increases in the amount of protein (protein content of secondary aqueous humor-protein content of primary aqueous humor) in the respective groups were compared to evaluate the antiinflammatory effect of each test substance.

[1] = tested on: back skin of Hartly guinea pigs; test: Inhibitory effect on ultraviolet-induced erythema; assay type: in vivo; parameters: key to Degree of erythema, After 1 hour, Right / Degree of erythema, After 1 hour, Left / Degree of erythema, After 2 hours, Right / Degree of erythema, After 2 hours, Left: 0: No erythema; 1: Slight erythema; 2: Erythema without a distinct margin; 3: Erythema with a distinct margin
Description: Method: The back hairs of Hartly guinea pigs were clipped with an electric clipper and shaved with an electric razor. Then, a cloth with two holes 11 mm in diameter and 4 cm apart was appliedto the back for positioning and a 1 (w/v) % aqueous solution of δ-EPC (adjusted to pH 6.0) and, as control, water were applied 3 times in 100 μl portions each at 1-hour intervals around the sites of said holes over an area 4 cm in diameter. One hour after the final application, said cloth with small holes was applied again and the exposed skin areas was irradiated with ultraviolet rays at 1700 luxes for 360 seconds. Then, after 1 and 2 hours, respectively, the back was grossly examined for erythema. […]
Erythema without a distinct margin
Erythema with a distinct margin

[2] = 1 (w/v) % aqueous solution pH 6.0, 3 x 100 μl, one animal per line, control 2, 2, 2, 2
[3] = 1 (w/v) % aqueous solution pH 6.0, 3 x 100 μl, one animal per line, control 2, 3, 2, 2

Structure (SMILES) | % Inhibition (rabbits eye) [%] | Increase in protein (rabbits eye) | Degree of erythema, After 1 hour, Left [1, 2] | Degree of erythema, After 2 hours, Left [1, 2] | Degree of erythema, After 1 hour, Right [1, 3] | Degree of erythema, After 2 hours, Right [1, 3] | antiinflammatory effect compared with the control group ([1]; UV-induced erythema, guinea pigs)
C[C@@H]1C[C@H]2[C@@H]3CCC4=CC(=O)C=C[C@]4(C)[C@@]3(F)[C@@H](O)C[C@]2(C)[C@@]1(O)C(=O)CO [DEX, Dexamethasone, reference compound] | 18.4 | 20.8 |  |  |  |  | 
Cc1c(OP(=O)(O)OC2=C(O)[C@@H]([C@@H](O)CO)OC2=O)cc2c(c1C)OC(C)(CCCC(C)CCCC(C)CCCC(C)C)CC2 (mixture of isomers) [γ-EPC, L-Ascorbyl DL-γ-tocopheryl phosphate sodium] | 36.5 | 16.2 |  |  |  |  | 
Cc1cc(OP(=O)(O)OC2=C(O)[C@@H]([C@@H](O)CO)OC2=O)cc2c1O[C@](C)(CCC[C@H](C)CCC[C@H](C)CCCC(C)C)CC2 [δ-EPC, L-Ascorbyl D-δ-tocopheryl phosphate sodium] | 40.0 | 15.3 | 0 and 1 | 0 and 1 | 1 | 1 | significant antiinflammatory effect
Cc1cc(OP(=O)(O)OC2=C(O)[C@@H]([C@@H](O)CO)OC2=O)c(C)c2c1OC(C)(CCCC(C)CCCC(C)CCCC(C)C)CC2 (mixture of isomers) [β-EPC, L-Ascorbyl DL-β-tocopheryl phosphate sodium] | 37.3 | 16.0 |  |  |  |  | 
